Source: patent publication US20190054098A1, “AGENTS AND METHODS USING THEREOF FOR THE PREVENTION AND TREATMENT OF STEM CELLS SENESCENCE” (ECOLE POLYTECHNIQUE FEDERALE DE LAUSANNE (EPFL), priority 2015, published 2019)

Test system: C2C12 myoblasts
Test: Expression of UPRmt markers, prohibitins and cell cycle regulators in C2C12 myoblasts treated with TAP (FIG. 3)
Type: cell-based
Conditions: 50 μg/ml TAP, different treatment periods (FIG. 3)
Protocol: Total RNA was extracted from MuSCs by sorting cells directly into TriPure RNA isolation reagent (Roche) or from cultured C2C12 myoblasts using TriPure reagent according to the product manual. Total RNA was transcribed to cDNA using QuantiTect Reverse Transcription Kit (Qiagen). Expression of selected genes was analyzed using the LightCycler480 system (Roche) and LightCycler® 480 SYBR Green I Master reagent (Roche). The acidic ribosomal protein 36b4 gene (ribosomal protein, large, P0, Rplp0) was used as housekeeping reference. C2C12 cells were lysed in a buffer composed of 50 mM Tris, 150 mM KCl, EDTA 1 mM, NP40 1%, nicotinamide 5 mM, sodium butyrate 1 mM and protease inhibitors cocktail (Roche) at pH 7.4. Proteins were separated by SDS-PAGE and transferred onto nitrocellulose membranes. Blocking and antibody incubations were performed in 3% BSA. The following primary antibodies were used: anti-cleavage caspase 3 (Cell Signalling); Anti-γH2AX (Millipore); anti-β-actin (Sigma). All secondary antibodies were from Jackson Immunoresearch. Antibody detection reactions were developed by enhanced chemiluminescence (Advansta, CA, USA) using x-ray films or imaged using the c300 imaging system (Azure Biosystems). The following primary antibodies were used: anti-HSP60 (Enzo Life Science); anti-PHB (Biolegend); anti-PHB2 (Santa Cruz); anti-CKD4 (Novus biologicals); anti-CCND1 (Santa Cruz); anti-CCND3 (Santa Cruz); anti-HSP90 (BD Biosciences); HSP70 (Abcam); anti-MT-CO1 (Biolegend); anti-ATP5A (Biolegend); anti-Grp78 (Abcam); and anti-CLPP (Sigma).

## CS(=O)(=O)c1ccc([C@@H](O)[C@@H](CO)NC(=O)C(Cl)Cl)cc1 [thiamphenicol]
  UPR^mt induction: induction
  cell cycle gene expression / cell cycle regulators: induced
  mitonuclear imbalance: induces
  prohibitins expression: induced
Listed as TAP
  UPR^mt induction: induces
  cell cycle gene expression / cell cycle regulators: induces
